Experimental data published in the NIST ThermoML archive (doi:10.1021/je9010129).
Numbers after ± are expanded uncertainties.

Assay: refractive index (Na D-line) (dimensionless); mn = molality of the nth substance listed, in mol/kg
Details: 101 kPa, Liquid, Standard Abbe refractometry

N.N.O=S(=O)(O)O [ammonium sulfate] + O
refractive index
Details	288.15 K	298.15 K	308.15 K	318.15 K
m1 = 0.2725	1.33934 ± 0.00031	1.33813 ± 0.00031	1.33696 ± 0.00031	1.33544 ± 0.00031
m1 = 0.3995	1.34174 ± 0.00031	1.3408 ± 0.00031	1.33941 ± 0.00031	1.33806 ± 0.00031
m1 = 0.4876	1.34348 ± 0.00031	1.34227 ± 0.00031	1.34098 ± 0.00031	1.33956 ± 0.00031
m1 = 0.8025	1.34905 ± 0.00031	1.34798 ± 0.00031	1.3467 ± 0.00031	1.34521 ± 0.00031
m1 = 1.198	1.35554 ± 0.00031	1.35434 ± 0.00031	1.353 ± 0.00031	1.35156 ± 0.00031
m1 = 1.604	1.3614 ± 0.00031	1.36025 ± 0.00031	1.35888 ± 0.00031	1.3574 ± 0.00031
m1 = 1.992	1.36659 ± 0.00031	1.36535 ± 0.00031	1.36402 ± 0.00031	1.36252 ± 0.00031
m1 = 2.381	1.37134 ± 0.00031	1.37008 ± 0.00031	1.36878 ± 0.00031	1.36733 ± 0.00031
m1 = 2.801	1.37588 ± 0.00032	1.37472 ± 0.00032	1.37338 ± 0.00032	1.37211 ± 0.00032
m1 = 3.2	1.38006 ± 0.00032	1.37873 ± 0.00032	1.37738 ± 0.00032	1.37611 ± 0.00032
m1 = 3.619	1.38383 ± 0.00032	1.38259 ± 0.00032	1.38126 ± 0.00032	1.38009 ± 0.00032
m1 = 3.997	1.38708 ± 0.00032	1.38596 ± 0.00032	1.38446 ± 0.00032	1.38325 ± 0.00032
m1 = 4.396	1.39018 ± 0.00032	1.38897 ± 0.00032	1.3876 ± 0.00032	1.38647 ± 0.00032
m1 = 4.763	1.39286 ± 0.00032	1.3917 ± 0.00032	1.39031 ± 0.00032	1.38922 ± 0.00032
m1 = 5.181	1.3957 ± 0.00032	1.39451 ± 0.00032	1.3932 ± 0.00032	1.39197 ± 0.00032
m1 = 5.6	1.39836 ± 0.00032	1.39715 ± 0.00032	1.39584 ± 0.00032	1.39461 ± 0.00032
m1 = 5.876	–	–	1.3975 ± 0.00032	1.39618 ± 0.00032
m1 = 6.328	–	–	–	1.3983 ± 0.00032

O=S(=O)([O-])[O-].[K+].[K+] [potassium sulfate] + O
refractive index
Details	288.15 K	298.15 K	308.15 K	318.15 K
m1 = 0.0456	1.33447 ± 0.00031	1.33359 ± 0.00031	1.33228 ± 0.00031	1.33072 ± 0.00031
m1 = 0.1387	1.33636 ± 0.00031	1.33552 ± 0.00031	1.33411 ± 0.00031	1.33251 ± 0.00031
m1 = 0.2502	1.33866 ± 0.00031	1.33771 ± 0.00031	1.33625 ± 0.00031	1.33466 ± 0.00031
m1 = 0.3409	1.34035 ± 0.00031	1.33945 ± 0.00031	1.33786 ± 0.00031	1.33626 ± 0.00031
m1 = 0.4174	1.34183 ± 0.00031	1.34071 ± 0.00031	1.33927 ± 0.00031	1.33763 ± 0.00031
m1 = 0.503	1.3433 ± 0.00031	1.34227 ± 0.00031	1.34077 ± 0.00031	1.33906 ± 0.00031
m1 = 0.5093	1.34341 ± 0.00031	1.3423 ± 0.00031	1.34084 ± 0.00031	1.3392 ± 0.00031
m1 = 0.5703	1.34451 ± 0.00031	1.34337 ± 0.00031	1.34186 ± 0.00031	1.34022 ± 0.00031
m1 = 0.6509	–	1.34476 ± 0.00031	1.34324 ± 0.00031	1.34151 ± 0.00031
m1 = 0.7435	–	–	1.34478 ± 0.00031	1.34301 ± 0.00031
m1 = 0.8106	–	–	–	1.34404 ± 0.00031
m1 = 0.8605	–	–	–	1.34488 ± 0.00031
m1 = 0.9049	–	–	–	1.34557 ± 0.00031

O=S(=O)([O-])[O-].[Na+].[Na+] [sodium sulfate] + O
refractive index
Details	288.15 K	298.15 K	308.15 K	318.15 K
m1 = 0.1002	1.33566 ± 0.00031	1.33473 ± 0.00031	1.33342 ± 0.00031	1.33185 ± 0.00031
m1 = 0.1938	1.33757 ± 0.00031	1.33653 ± 0.00031	1.33518 ± 0.00031	1.33378 ± 0.00031
m1 = 0.477	1.34311 ± 0.00031	1.34187 ± 0.00031	1.34052 ± 0.00031	1.33896 ± 0.00031
m1 = 0.7055	1.34719 ± 0.00031	1.34585 ± 0.00031	1.34434 ± 0.00031	1.34278 ± 0.00031
m1 = 0.8578	1.34983 ± 0.00031	1.34855 ± 0.00031	1.34695 ± 0.00031	1.34531 ± 0.00031
m1 = 0.9866	–	1.35058 ± 0.00031	1.34904 ± 0.00031	1.34742 ± 0.00031
m1 = 1.206	–	1.35377 ± 0.00031	1.3522 ± 0.00031	1.35057 ± 0.00031
m1 = 1.59	–	1.35915 ± 0.00031	1.35746 ± 0.00031	1.35598 ± 0.00031
m1 = 1.727	–	1.36096 ± 0.00031	1.35931 ± 0.00031	1.35778 ± 0.00031
m1 = 1.992	–	–	1.36271 ± 0.00031	1.36102 ± 0.00031
m1 = 2.237	–	–	1.36573 ± 0.00031	1.36396 ± 0.00031
m1 = 2.532	–	–	1.36884 ± 0.00031	1.36711 ± 0.00031
m1 = 2.681	–	–	1.37046 ± 0.00032	1.36857 ± 0.00032
m1 = 2.805	–	–	1.37172 ± 0.00032	1.36992 ± 0.00032
m1 = 3.053	–	–	1.37411 ± 0.00032	1.37246 ± 0.00032
m1 = 3.219	–	–	1.37569 ± 0.00032	1.37386 ± 0.00032
m1 = 3.305	–	–	1.37649 ± 0.00032	1.3747 ± 0.00032
m1 = 3.423	–	–	1.37756 ± 0.00032	–

O [water] + N.N.O=S(=O)(O)O
m2 = 0
Details	refractive index
288.15 K	1.33339 ± 0.00031
298.15 K	1.33248 ± 0.00031
308.15 K	1.33128 ± 0.00031
318.15 K	1.32979 ± 0.00031

O [water] + O=S(=O)([O-])[O-].[K+].[K+]
m2 = 0
Details	refractive index
288.15 K	1.33339 ± 0.00031
298.15 K	1.33248 ± 0.00031
308.15 K	1.33128 ± 0.00031
318.15 K	1.32979 ± 0.00031

O [water] + O=S(=O)([O-])[O-].[Na+].[Na+]
m2 = 0
Details	refractive index
288.15 K	1.33339 ± 0.00031
298.15 K	1.33248 ± 0.00031
308.15 K	1.33128 ± 0.00031
318.15 K	1.32979 ± 0.00031
